# Experimental data from US20230159467A1, “NOVEL COMPOUNDS USEFUL IN THE TREATMENT AND/OR PREVENTION OF A DISEASE, DISORDER OR CONDITION ASSOCIATED WITH ANGIOTENSIN II” (Vicore Pharma AB, priority 2020, published 2023).
# Columns and labels:
# [1] = molecular target: T1, CYP2B6 (Homo sapiens, UniProt P20813); assay: CYP450 inhibition assay, pooled human liver microsomes, bupropion substrate; conditions: both, human, pooled human liver microsomes, pH 7.4, probe bupropion
# T1 sequence (P20813 1-491): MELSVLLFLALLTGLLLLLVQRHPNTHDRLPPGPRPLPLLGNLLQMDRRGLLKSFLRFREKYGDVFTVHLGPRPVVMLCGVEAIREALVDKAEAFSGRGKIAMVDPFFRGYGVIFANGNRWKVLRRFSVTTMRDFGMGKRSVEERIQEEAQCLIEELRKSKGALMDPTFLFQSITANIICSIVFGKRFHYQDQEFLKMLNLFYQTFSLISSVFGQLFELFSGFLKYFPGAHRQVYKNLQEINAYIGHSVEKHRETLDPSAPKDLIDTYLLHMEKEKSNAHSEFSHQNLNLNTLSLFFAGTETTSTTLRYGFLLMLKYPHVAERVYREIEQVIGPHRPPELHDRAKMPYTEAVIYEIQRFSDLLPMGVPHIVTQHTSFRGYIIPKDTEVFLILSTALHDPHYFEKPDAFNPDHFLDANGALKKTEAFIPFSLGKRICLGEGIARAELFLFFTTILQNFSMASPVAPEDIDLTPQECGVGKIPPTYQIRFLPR
# [2] = tested on: CYP3A; assay: CYP450 inhibition assay, pooled human liver microsomes, midazolam substrate; conditions: both, human, pooled human liver microsomes, pH 7.4, probe midazolam
# [3] = molecular target: T2, CYP1A (Homo sapiens, UniProt P05177); assay: CYP450 inhibition assay, pooled human liver microsomes, phenacetin substrate; conditions: both, human, pooled human liver microsomes, pH 7.4, probe phenacetin
# T2 sequence (P05177 1-516): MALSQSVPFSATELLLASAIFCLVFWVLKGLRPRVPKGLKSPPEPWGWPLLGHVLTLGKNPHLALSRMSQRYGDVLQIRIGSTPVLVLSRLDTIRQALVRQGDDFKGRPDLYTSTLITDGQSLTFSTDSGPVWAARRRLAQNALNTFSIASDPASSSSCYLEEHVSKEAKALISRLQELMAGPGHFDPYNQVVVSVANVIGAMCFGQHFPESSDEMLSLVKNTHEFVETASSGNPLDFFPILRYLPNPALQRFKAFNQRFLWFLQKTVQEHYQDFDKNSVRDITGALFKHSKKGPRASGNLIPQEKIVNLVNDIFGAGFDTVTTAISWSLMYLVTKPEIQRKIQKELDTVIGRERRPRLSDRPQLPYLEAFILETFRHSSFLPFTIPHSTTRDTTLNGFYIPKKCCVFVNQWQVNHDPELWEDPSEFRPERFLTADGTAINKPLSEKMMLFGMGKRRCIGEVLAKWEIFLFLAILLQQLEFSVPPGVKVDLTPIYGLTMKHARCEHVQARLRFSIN
# [4] = molecular target: CYP2C9 (Homo sapiens, UniProt P11712); assay: CYP450 inhibition assay, pooled human liver microsomes, diclofenac substrate; conditions: both, human, pooled human liver microsomes, pH 7.4, probe diclofenac
# [5] = molecular target: CYP2C19 (Homo sapiens, UniProt P33261); assay: CYP450 inhibition assay, pooled human liver microsomes, omeprazole substrate; conditions: both, human, pooled human liver microsomes, pH 7.4, probe omeprazole
# [6] = molecular target: T3, CYP2C8 (Homo sapiens, UniProt P10632); assay: CYP450 inhibition assay, pooled human liver microsomes, amodiaquine substrate; conditions: both, human, pooled human liver microsomes, pH 7.4, probe amodiaquine
# T3 sequence (P10632 1-490): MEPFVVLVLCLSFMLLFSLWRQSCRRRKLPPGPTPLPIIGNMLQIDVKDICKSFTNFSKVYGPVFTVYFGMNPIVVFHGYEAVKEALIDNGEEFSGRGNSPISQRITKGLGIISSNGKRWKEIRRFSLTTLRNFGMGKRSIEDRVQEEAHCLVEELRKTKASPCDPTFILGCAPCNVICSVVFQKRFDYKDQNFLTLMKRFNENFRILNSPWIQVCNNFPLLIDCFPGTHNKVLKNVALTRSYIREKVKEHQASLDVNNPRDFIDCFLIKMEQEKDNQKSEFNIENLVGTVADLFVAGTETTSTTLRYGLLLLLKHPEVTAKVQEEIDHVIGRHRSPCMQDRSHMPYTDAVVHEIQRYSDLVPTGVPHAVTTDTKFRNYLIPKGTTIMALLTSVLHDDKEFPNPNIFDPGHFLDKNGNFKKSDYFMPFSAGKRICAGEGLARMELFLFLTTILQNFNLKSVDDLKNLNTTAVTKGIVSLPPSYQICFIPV
# [7] = tested on: CYP3A; assay: CYP450 inhibition assay, pooled human liver microsomes, testosterone substrate; conditions: both, human, pooled human liver microsomes, pH 7.4, probe testosterone, CYP 450 Inhibition CYP3A testosterone, at 10 μM
# [8] = molecular target: CYP2D6 (Homo sapiens, UniProt P10635); assay: CYP450 inhibition assay, pooled human liver microsomes, dextromethorphan substrate; conditions: both, human, pooled human liver microsomes, pH 7.4, probe dextromethorphan
# [9] = molecular target: T4, human AT1R (Homo sapiens, UniProt P30556); format: binding; conditions: HEK-293 cell membranes
# T4 construct: host or cells: HEK-293
# T4 sequence (P30556 1-359): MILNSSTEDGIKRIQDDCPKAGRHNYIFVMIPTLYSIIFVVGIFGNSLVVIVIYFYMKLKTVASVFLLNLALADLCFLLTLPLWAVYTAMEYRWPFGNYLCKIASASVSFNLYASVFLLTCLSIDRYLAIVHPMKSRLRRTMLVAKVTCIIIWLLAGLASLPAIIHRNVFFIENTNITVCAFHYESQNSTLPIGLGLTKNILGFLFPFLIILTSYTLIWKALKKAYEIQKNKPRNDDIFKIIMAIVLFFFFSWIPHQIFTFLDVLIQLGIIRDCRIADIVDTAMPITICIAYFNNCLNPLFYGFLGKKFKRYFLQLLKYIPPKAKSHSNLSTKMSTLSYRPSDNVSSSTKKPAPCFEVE
# [10] = molecular target: T5, human AT2R (Homo sapiens, UniProt P50052); format: binding; conditions: HEK-293 cell membranes
# T5 construct: host or cells: HEK-293
# T5 sequence (P50052 1-363): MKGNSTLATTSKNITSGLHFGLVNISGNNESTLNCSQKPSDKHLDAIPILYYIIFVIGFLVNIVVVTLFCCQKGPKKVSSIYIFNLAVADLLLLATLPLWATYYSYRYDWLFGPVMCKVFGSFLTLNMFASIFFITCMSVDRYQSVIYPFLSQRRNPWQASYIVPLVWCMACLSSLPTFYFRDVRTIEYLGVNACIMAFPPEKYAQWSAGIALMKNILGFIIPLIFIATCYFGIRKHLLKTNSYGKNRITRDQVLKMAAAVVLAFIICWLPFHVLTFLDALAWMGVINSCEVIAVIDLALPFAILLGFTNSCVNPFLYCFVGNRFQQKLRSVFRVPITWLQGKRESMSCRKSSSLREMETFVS
# [11] = Stability in human liver microsomes; format: in vitro ADME; conditions: half-life
# Description: Stability in liver microsomes. Human, mouse and rat liver microsomes were used to assess the metabolic stability for the compounds. Metabolic stability was determined in 0.5 mg/mL human, mouse or rat liver microsomes at a compound concentration of 1 μM in 100 mM potassium phosphate buffer (pH 7.4) in a total incubation volume of 500 μL by Eurofins. The assay matrix was: human liver microsomes: mixed gender and pool of 50, rat liver microsomes: male, Sprague-Dawley, pool of 100 or more and mouse liver microsomes: male,CD-1, pool of 250 or more. Final microsomal protein concentration: 0.1mg/mL. The test concentration was 0.1 μM with 0.01% DMSO, 0.25% acetonitrile and 0.25% methanol by default. […] The reaction was initiated by adding NADPH-generating system and was incubated for 0, 15, 30, 45, and 60 min. The reaction was stopped by transferring the incubation mixture to acetonitrile/methanol. Samples were then mixed and centrifuged. Four reference compounds were tested in each assay. Propranolol and imipramine are relatively stable, whereas verapamil and terfenadine are readily metabolized inhuman liver microsomes. Samples were analyzed by HPLC-MS/MS using selected reaction monitoring. The HPLC system consisted of a binary LC pump with autosampler, a C-18 column, and a gradient. Peak areas corresponding to the test compound were recorded. The compound remaining was calculated by comparing the peak area at each time point to time zero. The half-life was calculated from the slope of the initial linear range of the logarithmic curve of compound remaining (%) vs. time, assuming first order kinetics. In addition, the intrinsic clearance (Clint) was calculated.^19,20
# Chain of CYP2C19 (P33261 whole entry): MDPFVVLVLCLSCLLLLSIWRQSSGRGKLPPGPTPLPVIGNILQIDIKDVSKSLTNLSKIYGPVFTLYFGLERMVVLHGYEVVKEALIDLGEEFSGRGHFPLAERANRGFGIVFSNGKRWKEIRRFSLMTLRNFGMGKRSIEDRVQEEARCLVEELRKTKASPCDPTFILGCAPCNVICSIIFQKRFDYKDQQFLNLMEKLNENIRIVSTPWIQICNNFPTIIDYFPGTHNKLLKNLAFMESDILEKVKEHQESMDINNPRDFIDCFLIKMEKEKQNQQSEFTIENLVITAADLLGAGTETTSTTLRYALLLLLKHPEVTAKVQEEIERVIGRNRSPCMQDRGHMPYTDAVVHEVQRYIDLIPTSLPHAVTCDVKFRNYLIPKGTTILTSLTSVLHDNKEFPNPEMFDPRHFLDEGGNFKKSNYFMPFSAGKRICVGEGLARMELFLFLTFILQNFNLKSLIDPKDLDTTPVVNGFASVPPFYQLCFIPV
# Chain of CYP2C9 (P11712 whole entry): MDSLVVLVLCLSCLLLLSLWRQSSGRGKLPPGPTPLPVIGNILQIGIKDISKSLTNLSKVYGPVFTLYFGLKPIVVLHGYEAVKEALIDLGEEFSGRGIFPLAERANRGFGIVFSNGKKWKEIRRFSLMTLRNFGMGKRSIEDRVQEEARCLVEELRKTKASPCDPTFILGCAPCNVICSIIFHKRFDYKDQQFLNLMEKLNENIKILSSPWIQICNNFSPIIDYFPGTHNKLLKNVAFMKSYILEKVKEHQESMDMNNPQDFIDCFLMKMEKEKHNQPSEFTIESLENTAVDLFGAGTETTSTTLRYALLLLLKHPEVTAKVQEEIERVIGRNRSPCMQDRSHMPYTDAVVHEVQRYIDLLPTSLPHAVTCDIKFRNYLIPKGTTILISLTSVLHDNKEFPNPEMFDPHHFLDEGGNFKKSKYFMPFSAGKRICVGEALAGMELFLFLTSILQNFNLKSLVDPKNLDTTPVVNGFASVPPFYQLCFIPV
# Chain of CYP2D6 (P10635 whole entry): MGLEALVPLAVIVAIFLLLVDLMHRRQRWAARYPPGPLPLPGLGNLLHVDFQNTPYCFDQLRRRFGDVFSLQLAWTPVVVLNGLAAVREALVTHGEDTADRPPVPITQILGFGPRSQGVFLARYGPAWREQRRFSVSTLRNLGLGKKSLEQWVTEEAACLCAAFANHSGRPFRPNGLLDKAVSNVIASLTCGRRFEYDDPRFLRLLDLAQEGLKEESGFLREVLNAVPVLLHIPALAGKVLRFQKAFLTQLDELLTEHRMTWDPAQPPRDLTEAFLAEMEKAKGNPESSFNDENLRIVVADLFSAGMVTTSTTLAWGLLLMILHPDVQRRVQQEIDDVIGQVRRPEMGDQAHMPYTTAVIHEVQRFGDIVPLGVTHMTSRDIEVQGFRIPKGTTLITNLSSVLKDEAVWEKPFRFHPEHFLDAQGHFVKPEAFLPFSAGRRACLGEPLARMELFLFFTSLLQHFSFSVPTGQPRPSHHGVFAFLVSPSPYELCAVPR
"inhibition at 10 min, 10 µM [1]","inhibition at 10 min, 10 µM [2]","inhibition at 10 min, 10 µM [3]","inhibition at 10 min, 10 µM [4]","inhibition at 10 min, 10 µM [5]","inhibition at 10 min, 10 µM [6]","inhibition at 10 min, 10 µM [7]","inhibition at 10 min, 10 µM [8]",Ki [9],Ki [10],Stability in liver microsomes HLM [11],Compound
29.8%,-11.7%,-3.04%,43.7%,31%,66.5%,8.43%,17.1%,,,,"CCCCOC(=O)NS(=O)(=O)c1ccc(CC(C)C)cc1-c1ccc(Cn2ccnc2C(C)(C)F)cc1 [Example 32, Butyl ((4′-((2-(2-fluoropropan-2-yl)-1H-imidazol-1-yl)methyl)-5-isobutyl-[1,1′-biphenyl]-2-yl)sulfonyl)carbamate]"
,,,,,,,,1000 nM,12 nM,>60 min,"CCCCOC(=O)NS(=O)(=O)c1sc(CC(C)C)nc1-c1ccc(Cn2ccnc2C(C)(C)O)cc1 [Example 17A, Butyl ((4-(4-((2-(2-hydroxypropan-2-yl)-1H-imidazol-1-yl)methyl)phenyl)-2-isobutylthiazol-5-yl)sulfonyl)carbamate]"
,,,,,,,,1000 nM,5.8 nM,>60 min,"CCCCOC(=O)NS(=O)(=O)c1sc(CC(C)C)nc1-c1ccc(Cn2ccnc2C(C)C)cc1 [Example 18, Butyl ((2-isobutyl-4-(4-((2-isopropyl-1H-imidazol-1-yl)methyl)phenyl)thiazol-5-yl)sulfonyl)carbamate]"
6.9%,9.98%,-5.97%,42.2%,43.3%,70.3%,18.1%,16.2%,15000 nM,2.3 nM,,"COC(=O)NS(=O)(=O)c1ccc(CC(C)C)cc1-c1ccc(Cn2ccnc2C(C)(C)F)cc1 [Example 34, Methyl ((4′-((2-(2-fluoropropan-2-yl)-1H-imidazol-1-yl)methyl)-5-isobutyl-[1,1′-biphenyl]-2-yl)sulfonyl)carbamate]"
,,,,,,,,1000 nM,4.6 nM,>60 min,"CCCc1ccc(S(=O)(=O)[N-]C(=O)OC)c(-c2ccc(Cn3ccnc3C(C)(C)O)cc2)c1.[K+] [Example 30B, Potassium (methoxycarbonyl) ((4′-((2-(2-hydroxypropan-2-yl)-1H-imidazol-1-yl)methyl)-5-propyl-[1,1′-biphenyl]-2-yl)sulfonyl)amide]"
